The results in this text go back to US11098003B2, “Control and repellency of bed bugs” (BEDOUKIAN RESEARCH, INC., priority 2012, dated 2021).

The assay relates to bed bugs. As to the kind of experiment: Petri dish choice test, treated vs. untreated paper discs: repellency (avoidance) of bed bugs. To be noted: 1 ml acetone solution on paper disc, distribution at 2 hours post-treatment, 5 replicates of 10 bed bugs. The class given is in vivo, Cimex species. As to the method:
Two semicircle discs of paper, one treated (1 ml of acetone solution of each compound was applied to each disc) and one untreated (1 ml of acetone only), were placed in the lid of a Petri dish. […] Five replicates of 10 bed bugs were released into the centers of the lids and were thus presented with a choice of treated vs. untreated substrate (or untreated vs. untreated in the control arenas). The distribution of the bed bugs was recorded at 2 hours post-treatment. Paired t-tests were conducted for each treatment to ascertain whether or not there was a statistically significant difference in the numbers of bed bugs on the treated vs. untreated discs.

Consider `CCCCCCCCCC1CCC(=O)O1` (stereo not shown) [gamma-Tridecalactone], for which the Repellency/Avoidance came to 86% (0.5% compound) and 96% (1% compound).
In turn, `CCCCCCCCCC1(C)CCC(=O)O1` (stereo not shown) [gamma Methyl tridecalactone] registered a Repellency/Avoidance (0.2% compound) of 72%.
`CCCCCCCCCCCCCC1CCC(=O)O1` (stereo not shown) [gamma-Heptadecalactone] had a Repellency/Avoidance (2% compound) of 68%.
`CC1CCC(C(C)(C)O)C(O)C1` (stereo not shown) [Para Menthane-3,8-diol (PMD), Para Menthane-3,8-diol, reference compound]: the Repellency/Avoidance is 42% (0.15% compound) and 70% (0.2% compound).
Consider `CCCCCC1C(O)CCC1CC(=O)OCC=C(C)C` (stereo not shown) [Prenyl dihydrojasmolate], for which the Repellency/Avoidance (0.2% compound) turned out to be 48%.
The same measure, in the same setting: as for Dihydrojasmolactone, the figure is 84%; as for `CCCCCCCCC1CCC(=O)O1` (stereo not shown) [gamma-Dodecalactone], 82%.
Same read-out and setting: as for `CCCCCC1C(=O)CCC1CC(=O)O` (stereo not shown) [Dihydrojasmonic Acid], the figure is 78%.
As for `CCCCCC1C(O)CCC1CC(=O)OC` (stereo not shown) [Methyl dihydrojasmolate], the Repellency/Avoidance runs as follows: (0.15% compound) 58%; (0.2% compound) 82%.
In turn, Methyl dihydrojasmonate amide showed a Repellency/Avoidance (concentration not given) of 28%.
Take `CCN(CC)C(=O)c1cccc(C)c1` [DEET, N,N-Diethyl-m-toluamide, reference compound]: the Repellency/Avoidance is 66% (0.09% compound) and 74% (0.2% compound).
As for Methyl apritol, the Repellency/Avoidance was found to be 74% (0.15% compound) and 88% (0.2% compound).
`CCCCCC1C(CC(=O)OC)CCC1(OC)OC` (stereo not shown) [Methyl dihydrojasmonate dimethyl acetal] showed a Repellency/Avoidance (0.2% compound) of 90%.
`CCCCCCCCCCCC1CCC(=O)O1` (stereo not shown) [gamma-Pentadecalactone] came in with a Repellency/Avoidance (1% compound) of 92%.
